Test results reported in publication PMC9447987, “Long-term memory CD8^+ T cells specific for SARS-CoV-2 in individuals who received the BNT162b2 mRNA vaccine” (Nature Communications, 2022).
Read-outs that look alike come from different tables or passages of the source.

What was measured:
[1] = system: HLA-A*24:02-restricted CD8+ T cells; assay type: cell-based, human; conditions: for IFN-γ-producing cells among CD8+ T cells (Fig. 1f): bulk T cells
[2] = molecular target: HLA-A*24:02 (Homo sapiens, UniProt P04439, D101N/D140Y/D185E/E176V/E190D/F33S/G103R/G107R/I119L/I121M/I306V/K335N/L105A/L180Q/L300P/N151K/N90K/Q86E/Q94H/R106L/R138H/R89G/T104I/T345S/V100E/W191G/Y123F); assay: HLA stabilization assay using RMA-S-A2402 cells; assay type: binding; conditions: RMA-S-A2402 cells
[3] = 14 vaccinated individuals, second time point 11–22 weeks after the first point of analysis

Sequence: VYSSANNCTF [S-VYF10]
- number of individuals with specific T cells at both time points [1, 3]: two
- number of individuals with specific T cells at only the first time point [1, 3]: one
- IFNg-producing cells among CD8 T cells (%) ([1]; Fig.6a, donor U-32, 1.430 weeks since 2nd dose of vaccination): 0.080%
- IFNg-producing cells among CD8 T cells (%) ([1]; Fig.6a, donor U-32, 15.290 weeks since 2nd dose of vaccination): 0.000%
- IFNg-producing cells among CD8 T cells (%) ([1]; Fig.6a, donor V1, 19.000 weeks since 2nd dose of vaccination): 0.000%
- IFNg-producing cells among CD8 T cells (%) ([1]; Fig.6a, donor V1, 31.710 weeks since 2nd dose of vaccination): 0.710%
- IFNg-producing cells among CD8 T cells (%) ([1]; Fig.6a, donor V2, 9.570 weeks since 2nd dose of vaccination): 0.330%
- IFNg-producing cells among CD8 T cells (%) ([1]; Fig.6a, donor V2, 31.570 weeks since 2nd dose of vaccination): 0.000%
- IFNg-producing cells among CD8 T cells (%) ([1]; Fig.6a, donor V5, 10.570 weeks since 2nd dose of vaccination): 0.000%
- IFNg-producing cells among CD8 T cells (%) ([1]; Fig.6a, donor V5, 31.710 weeks since 2nd dose of vaccination): 1.030%
- IFNg-producing cells among CD8 T cells (%) ([1]; Fig.6a, donor V6, 9.570 weeks since 2nd dose of vaccination): 0.590%
- IFNg-producing cells among CD8 T cells (%) ([1]; Fig.6a, donor V6, 31.000 weeks since 2nd dose of vaccination): 0.930%
- IFNg-producing cells among CD8 T cells (%) ([1]; Fig.6a, donor V7, 10.140 weeks since 2nd dose of vaccination): 0.000%
- IFNg-producing cells among CD8 T cells (%) ([1]; Fig.6a, donor V7, 31.140 weeks since 2nd dose of vaccination): 0.470%
- IFNg-producing cells among CD8 T cells (%) ([1]; Fig.6a, donor V8, 9.860 weeks since 2nd dose of vaccination): 0.000%
- IFNg-producing cells among CD8 T cells (%) ([1]; Fig.6a, donor V8, 30.140 weeks since 2nd dose of vaccination): 0.160%
- IFNg-producing cells among CD8 T cells (%) ([1]; Fig.6a, donor V9, 20.570 weeks since 2nd dose of vaccination): 0.000%
- IFNg-producing cells among CD8 T cells (%) ([1]; Fig.6a, donor V9, 31.570 weeks since 2nd dose of vaccination): 0.930%
- IFNg-producing cells among CD8 T cells (%) ([1]; Fig.6a, donor V12, 1.000 weeks since 2nd dose of vaccination): 0.000%
- IFNg-producing cells among CD8 T cells (%) ([1]; Fig.6a, donor V12, 9.290 weeks since 2nd dose of vaccination): 0.000%
- IFNg-producing cells among CD8 T cells (%) ([1]; Fig.6a, donor V13, 9.000 weeks since 2nd dose of vaccination): 2.650%
- IFNg-producing cells among CD8 T cells (%) ([1]; Fig.6a, donor V13, 30.290 weeks since 2nd dose of vaccination): 3.770%
- IFNg-producing cells among CD8 T cells (%) ([1]; Fig.6a, donor V14, 2.000 weeks since 2nd dose of vaccination): 1.600%
- IFNg-producing cells among CD8 T cells (%) ([1]; Fig.6a, donor V14, 17.000 weeks since 2nd dose of vaccination): 1.540%
- IFNg-producing cells among CD8 T cells (%) ([1]; Fig.6a, donor V15, 6.860 weeks since 2nd dose of vaccination): 0.000%
- IFNg-producing cells among CD8 T cells (%) ([1]; Fig.6a, donor V15, 25.860 weeks since 2nd dose of vaccination): 0.380%
- IFNg-producing cells among CD8 T cells (%) ([1]; Fig.6a, donor V16, 8.860 weeks since 2nd dose of vaccination): 1.180%
- IFNg-producing cells among CD8 T cells (%) ([1]; Fig.6a, donor V16, 22.710 weeks since 2nd dose of vaccination): 0.000%
- IFNg-producing cells among CD8 T cells (%) ([1]; Fig.6a, donor V17, 4.140 weeks since 2nd dose of vaccination): 0.000%
- IFNg-producing cells among CD8 T cells (%) ([1]; Fig.6a, donor V17, 18.000 weeks since 2nd dose of vaccination): 0.000%
- IFNg-producing cells among CD8 T cells (%) ([1]; convalescent donor C2, 45.290 weeks since PCR-confirmed diagnosis, […], peptide-pulsed C1R-A2402): 1.019%
- IFNg-producing cells among CD8 T cells (%) ([1]; convalescent donor C3, 2.430 weeks since PCR-confirmed diagnosis, […], peptide-pulsed C1R-A2402): 0.261%
- IFNg-producing cells among CD8 T cells (%) ([1]; convalescent donor C4, 35.000 weeks since PCR-confirmed diagnosis, […], peptide-pulsed C1R-A2402): 0.317%
- IFNg-producing cells among CD8 T cells (%) ([1]; convalescent donor C5, 41.430 weeks since PCR-confirmed diagnosis, […], peptide-pulsed C1R-A2402): 0.327%
- IFNg-producing cells among CD8 T cells (%) ([1]; convalescent donor C6, 20.000 weeks since PCR-confirmed diagnosis, […], peptide-pulsed C1R-A2402): 1.170%
- IFNg-producing cells among CD8 T cells (%) ([1]; convalescent donor C7, 21.710 weeks since PCR-confirmed diagnosis, […], peptide-pulsed C1R-A2402): 0.230%
- IFNg-producing cells among CD8 T cells (%) ([1]; convalescent donor C8, 47.860 weeks since PCR-confirmed diagnosis, […], peptide-pulsed C1R-A2402): 0.410%
- IFNg-producing cells among CD8 T cells (%) ([1]; convalescent donor C9, 21.860 weeks since PCR-confirmed diagnosis, […], peptide-pulsed C1R-A2402): 0.000%
- IFNg-producing cells among CD8 T cells (%) ([1]; convalescent donor C10, 24.570 weeks since PCR-confirmed diagnosis, […], peptide-pulsed C1R-A2402): 1.220%
- IFNg-producing cells among CD8 T cells (%) ([1]; convalescent donor C11, 24.290 weeks since PCR-confirmed diagnosis, […], peptide-pulsed C1R-A2402): 0.000%
- IFN-γ-producing cells among CD8+ T cells (Fig. 1f) ([1]; donor V10, 0 weeks since 1st dose of vaccination, C1R-A2402 pre-pulsed with 1 μM peptide): 1.450%
- IFN-γ-producing cells among CD8+ T cells (Fig. 1f) ([1]; donor V10, 3 weeks since 1st dose of vaccination, C1R-A2402 pre-pulsed with 1 μM peptide): 0.420%
- IFN-γ-producing cells among CD8+ T cells (Fig. 1f) ([1]; donor V10, 5 weeks since 1st dose of vaccination, C1R-A2402 pre-pulsed with 1 μM peptide): 0.290%
- IFN-γ-producing cells among CD8+ T cells (Fig. 1f) ([1]; donor V10, 7 weeks since 1st dose of vaccination, C1R-A2402 pre-pulsed with 1 μM peptide): 0.000%
- IFN-γ-producing cells among CD8+ T cells (Fig. 1f) ([1]; donor V12, 0 weeks since 1st dose of vaccination, C1R-A2402 pre-pulsed with 1 μM peptide): 0.310%
- IFN-γ-producing cells among CD8+ T cells (Fig. 1f) ([1]; donor V12, 3 weeks since 1st dose of vaccination, C1R-A2402 pre-pulsed with 1 μM peptide): 0.000%
- IFN-γ-producing cells among CD8+ T cells (Fig. 1f) ([1]; donor V12, 5 weeks since 1st dose of vaccination, C1R-A2402 pre-pulsed with 1 μM peptide): 0.540%
- IFN-γ-producing cells among CD8+ T cells (Fig. 1f) ([1]; donor V12, 7 weeks since 1st dose of vaccination, C1R-A2402 pre-pulsed with 1 μM peptide): 0.000%
- IFN-γ-producing cells among CD8+ T cells (Fig. 1f) ([1]; donor V14, 0 weeks since 1st dose of vaccination, C1R-A2402 pre-pulsed with 1 μM peptide): 0.000%
- IFN-γ-producing cells among CD8+ T cells (Fig. 1f) ([1]; donor V14, 2 weeks since 1st dose of vaccination, C1R-A2402 pre-pulsed with 1 μM peptide): 0.000%
- IFN-γ-producing cells among CD8+ T cells (Fig. 1f) ([1]; donor V14, 5 weeks since 1st dose of vaccination, C1R-A2402 pre-pulsed with 1 μM peptide): 1.580%
- IFN-γ-producing cells among CD8+ T cells (Fig. 1f) ([1]; donor V14, 7 weeks since 1st dose of vaccination, C1R-A2402 pre-pulsed with 1 μM peptide): 0.000%
- number of individuals with specific T cells after the second vaccine dose ([1]; longitudinal analysis of 3 vaccinated individuals): one
- Freq of responder (%) ([1]; of 17 vaccinated HLA-A*24:02+ individuals (Fig. 4b)): 23.5%
- IFNg-producing cells among CD8 T cells (%) ([1]; vaccinated donor V1, 19.000 weeks since 2nd dose, […], C1R-A2402 pre-pulsed with 1 μM peptide): 0%
- IFNg-producing cells among CD8 T cells (%) ([1]; vaccinated donor V2, 9.570 weeks since 2nd dose, […], C1R-A2402 pre-pulsed with 1 μM peptide): 0.331%
- IFNg-producing cells among CD8 T cells (%) ([1]; vaccinated donor V3, 8.860 weeks since 2nd dose, […], C1R-A2402 pre-pulsed with 1 μM peptide): 0.073%
- IFNg-producing cells among CD8 T cells (%) ([1]; vaccinated donor V4, 10.430 weeks since 2nd dose, […], C1R-A2402 pre-pulsed with 1 μM peptide): 2.41%
- IFNg-producing cells among CD8 T cells (%) ([1]; vaccinated donor V5, 10.570 weeks since 2nd dose, […], C1R-A2402 pre-pulsed with 1 μM peptide): 0%
- IFNg-producing cells among CD8 T cells (%) ([1]; vaccinated donor V6, 9.570 weeks since 2nd dose, […], C1R-A2402 pre-pulsed with 1 μM peptide): 0.593%
- IFNg-producing cells among CD8 T cells (%) ([1]; vaccinated donor V7, 10.140 weeks since 2nd dose, […], C1R-A2402 pre-pulsed with 1 μM peptide): 0%
- IFNg-producing cells among CD8 T cells (%) ([1]; vaccinated donor V8, 9.860 weeks since 2nd dose, […], C1R-A2402 pre-pulsed with 1 μM peptide): 0%
- IFNg-producing cells among CD8 T cells (%) ([1]; vaccinated donor V9, 20.570 weeks since 2nd dose, […], C1R-A2402 pre-pulsed with 1 μM peptide): 0%
- IFNg-producing cells among CD8 T cells (%) ([1]; vaccinated donor V10, 2.000 weeks since 2nd dose, […], C1R-A2402 pre-pulsed with 1 μM peptide): 0.3%
- IFNg-producing cells among CD8 T cells (%) ([1]; vaccinated donor V11, 1.430 weeks since 2nd dose, […], C1R-A2402 pre-pulsed with 1 μM peptide): 0.076%
- IFNg-producing cells among CD8 T cells (%) ([1]; vaccinated donor V12, 1.000 weeks since 2nd dose, […], C1R-A2402 pre-pulsed with 1 μM peptide): 0%
- IFNg-producing cells among CD8 T cells (%) ([1]; vaccinated donor V13, 9.000 weeks since 2nd dose, […], C1R-A2402 pre-pulsed with 1 μM peptide): 2.649%
- IFNg-producing cells among CD8 T cells (%) ([1]; vaccinated donor V14, 2.000 weeks since 2nd dose, […], C1R-A2402 pre-pulsed with 1 μM peptide): 1.601%
- IFNg-producing cells among CD8 T cells (%) ([1]; vaccinated donor V15, 6.860 weeks since 2nd dose, […], C1R-A2402 pre-pulsed with 1 μM peptide): 0%
- IFNg-producing cells among CD8 T cells (%) ([1]; vaccinated donor V16, 8.860 weeks since 2nd dose, […], C1R-A2402 pre-pulsed with 1 μM peptide): 1.178%
- IFNg-producing cells among CD8 T cells (%) ([1]; vaccinated donor V17, 4.140 weeks since 2nd dose, […], C1R-A2402 pre-pulsed with 1 μM peptide): 0%
- time after the second vaccine dose for which epitope-specific memory CD8+ T cells were detectable / maintained ([1]; vaccinated individuals (8 individuals)): > 30 weeks
- MFI, HLA-A2402 (APC), representative staining ([2]; Suppl. Fig. 3b (for Fig. 4a, 4b), peptide(-) 14.8, 26 °C (Maximum) 32.7): 26.9
- MFI, HLA-A2402 (APC), representative staining ([2]; Suppl. Fig. 3c (for Fig. 4c), peptide(-) 11.7, 26 °C (Maximum) 28.9): 32.7
